For this assay, the target named is T1, FLT3 kinase (Homo sapiens, UniProt P36888).
T1 construct: purchased Invitrogen
T1 sequence (P36888 27-993): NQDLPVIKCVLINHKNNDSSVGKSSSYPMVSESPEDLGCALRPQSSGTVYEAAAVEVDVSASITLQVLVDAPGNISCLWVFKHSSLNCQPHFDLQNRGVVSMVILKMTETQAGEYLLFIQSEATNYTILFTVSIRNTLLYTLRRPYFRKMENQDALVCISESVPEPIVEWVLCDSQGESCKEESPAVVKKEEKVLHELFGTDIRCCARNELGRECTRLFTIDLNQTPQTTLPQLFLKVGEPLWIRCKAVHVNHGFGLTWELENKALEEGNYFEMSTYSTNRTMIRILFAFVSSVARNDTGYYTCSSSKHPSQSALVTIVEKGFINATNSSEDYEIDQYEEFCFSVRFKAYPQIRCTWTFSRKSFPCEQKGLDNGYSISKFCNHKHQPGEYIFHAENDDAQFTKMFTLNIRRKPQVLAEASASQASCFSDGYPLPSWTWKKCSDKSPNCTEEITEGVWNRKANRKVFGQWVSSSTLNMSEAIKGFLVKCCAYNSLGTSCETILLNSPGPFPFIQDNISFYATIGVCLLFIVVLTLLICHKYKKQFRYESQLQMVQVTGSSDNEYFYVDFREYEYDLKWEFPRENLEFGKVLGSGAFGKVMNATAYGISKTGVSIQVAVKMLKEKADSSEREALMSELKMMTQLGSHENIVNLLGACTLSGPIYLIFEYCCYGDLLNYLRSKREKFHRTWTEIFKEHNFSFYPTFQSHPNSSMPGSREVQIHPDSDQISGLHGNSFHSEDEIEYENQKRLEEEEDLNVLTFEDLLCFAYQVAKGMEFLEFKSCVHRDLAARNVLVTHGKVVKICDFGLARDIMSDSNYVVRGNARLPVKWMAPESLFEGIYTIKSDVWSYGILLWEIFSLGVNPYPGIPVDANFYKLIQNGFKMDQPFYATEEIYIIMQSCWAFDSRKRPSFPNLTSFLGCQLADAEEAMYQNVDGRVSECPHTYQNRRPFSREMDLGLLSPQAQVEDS
Nature of the assay: Mechanism of inhibition (pre-incubation time and ATP concentration), FLT3. Type of assay: biochemical. The procedure:
Compound 13a was pre-incubated with the FLT3 kinase at 1, 3, 5, 10, 20, 30, 50, and 90 minutes. After the pre-incubation, IC50 values at each incubation interval was determined according to the procedure outlined in section 4.3. In a separate experiment, compound 13a was pre-incubated with the FLT3 kinase for 60 minutes. […] To determine IC50 values at each concentration of ATP, the same procedure was followed as outlined in section S10.
S10. Biochemical Inhibition Assay:1,2 Kinase activity was measured in a microfluidics assay that monitors the separation of a phosphorylated product from substrate. The assay was run using a 12-sipper chip on a Caliper EZ Reader II (PerkinElmer®, Walthman, USA) with separation buffer (100 mM HEPES, 10 mM EDTA, 0.015% Brij-35, 0.1% CR-3 [PerkinElmer®, Walthman, USA]). In 96-well polypropylene plates (Greiner, Frickenhausen, Germany) compound stocks (20 mM in DMSO) were diluted into kinase buffer (50 mM HEPES, 0.075% […]
dilutions (2 mM–6.32 nM). After, 1 μL was transferred into a 384-well polypropylene assay plate (Greiner, Frickenhausen, Germany). The FLT3 enzyme (Invitrogen™, Grand Island, USA) was diluted in kinase buffer to a concentration of 2 nM and 5 µL of the enzyme mixture was transferred to the assay plate. The inhibitors/FLT3 enzyme were incubated for 60 minutes with minor shaking. A substrate mix was prepared containing ATP (Ambresco®, Solon, USA) and 5FAM tagged FLT3 peptide (peptide #22, 5’ FAM-EPLYWSFPA, PerkinElmer®, Walthman, USA) dissolved in kinase buffer, and 5 µL of the substrate mix was added to the assay plate.
Running concentrations were as follows: ATP (190 µM), peptide (1.5 µM), compound 12-point ½log dilutions (0.2 mM–0.632 nM). For positive control, no inhibitor was added. For negative control, no enzyme was added. For running control, quizartinib was utilized. The plate was run until 10-20% conversion based on the positive control wells. The following separation conditions were utilized: upstream voltage -500V; downstream voltage, -1900V; chip pressure - 0.8. Percent inhibition was measured for each well comparing starting peptide to phosphorylated product peaks relative to the baseline. Dose response curves, spanning the IC50 dose, were generated in GraphPad Prisim 6 and fit to an exponential one-phase decay line and IC50 values were obtained from the half-life value of the curve. IC50 values were generated in duplicate and error was calculated from the standard deviation between values.
S11. Mechanism of Inhibition Procedure: Compound 13a was pre-incubated with the FLT3 kinase at 1, 3, 5, 10, 20, 30, 50, and 90 minutes. After the pre -incubation, IC50 values at each incubation interval was determined according to the procedure outlined in section 4.3. […]

Structures are written as SMILES.

On to `Cn1nc(C(C)(C)C)cc1NC(=O)Cc1ccc(Nc2cc(Nc3ccc(S(C)(=O)=O)cc3)ncn2)cc1` [13a, 2-(4-(6-(4-(Methylsulfonyl)phenylamino)pyrimidin-4-ylamino)phenyl)-N-(3-tert-butyl-1-methyl-1H-pyrazol-5-yl)acetamide], for which, for the setting “5-160 µM ATP, 60 minutes pre-incubation, p > 0.05”, the “effect of an increase in ATP concentration on FLT3 IC50” value is “did not cause a statistically significant increase”. Moreover, the mechanism of inhibition entry (from pre-incubation and ATP variation studies) was “non-competitive, Type-II kinase inhibitor”. Further, where the note is “p < 0.05”, the “change of FLT3 IC50 from no incubation to a 90-minute pre-incubation” value is listed as “statistically significant decrease”. Moreover, the “pre-incubation required to reach maximal inhibition of the FLT3 kinase” value (pre-incubation 1-90 minutes) was “approximately 60 minutes”.

(Values after PMC5829162, “Rational Design, Synthesis and Biological Evaluation of Pyrimidine-4,6-diamine derivatives as Type-II inhibitors of FLT3 Selective Against c-KIT” (Scientific Reports, 2018).)
